Patent US7683176B2, “Triazolyl pyridyl benzenesulfonamides” (ChemoCentryx, Inc., priority 2006, dated 2010)

The compounds below were run against T1, CCR2 (Homo sapiens, UniProt P41597) (assay: CCR2 activity in one of the chemotaxis, binding or calcium mobilization assays). Settings: binding or calcium mobilization assays (THP-1 cells, MCP-1).
T1 construct: chemokine expressing cells (such as THP-1 cells for CCR2 assay or MOLT-4 cells for CCR9 assay); host or cells: THP-1
T1 sequence (P41597 1-360 isoform P41597-2): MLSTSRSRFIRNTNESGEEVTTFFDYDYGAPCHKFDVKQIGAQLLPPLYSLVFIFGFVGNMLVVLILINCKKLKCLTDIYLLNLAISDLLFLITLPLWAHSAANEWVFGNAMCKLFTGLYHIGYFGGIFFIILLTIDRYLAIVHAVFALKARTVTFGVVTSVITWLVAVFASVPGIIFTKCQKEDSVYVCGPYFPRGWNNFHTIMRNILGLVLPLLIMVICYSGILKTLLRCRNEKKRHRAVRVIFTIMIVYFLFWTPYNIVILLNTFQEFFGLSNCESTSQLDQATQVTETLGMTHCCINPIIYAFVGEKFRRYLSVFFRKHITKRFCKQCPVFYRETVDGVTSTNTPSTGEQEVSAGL
Type: cell-based
Method: (§1) THP-1 cells and MOLT-4 cells were obtained from the American Type Culture Collection (Manassas, Va.) and cultured in RPMI tissue culture medium supplemented with 10% fetal calf serum (FCS) in a humidified 5% CO2 incubator at 37° C. Recombinant human chemokine proteins MCP-1 and TECK were obtained from R&D Systems (Minneapolis, Minn.). ^125I-labeled MCP-1 protein was obtained from Amersham (Piscataway, N.J.). ChemoTX® chemotaxis microchambers were purchased from Neuro Probe (Gaithersburg, Md.). CyQUANT® cell proliferation kits were purchased from Molecular Probes (Eugene, Oreg.). Calcium indicator dye Fluo-4 AM was purchased from Molecular Devices (Mountain View, Calif.).
(§2) Conventional migration assay was used to determine the efficacy of potential receptor antagonists in blocking migration mediated through chemokines (such as CCR2 or CCR9). This assay was routinely performed using the ChemoTX® microchamber system with a 5-μm pore-sized polycarbonate membrane. To begin such an assay, chemokine expressing cells (such as THP-1 cells for CCR2 assay or MOLT-4 cells for CCR9 assay) were harvested by centrifugation of cell suspension at 1000 RPM on a GS-6R Beckman centrifuge. The cell pellet was resuspended in chemotaxis buffer (HBSS with 0.1% BSA) at 10×10^6 cells/mL for CCR2 assay (5×10^6 cells/mL for CCR9 assay). Test compounds at desired concentrations were prepared from 10 mM stock solutions by serial dilutions in chemotaxis buffer. An equal volume of cells and compounds were mixed and incubated at room temperature for 15 minutes. Afterwards, 20 μL of the mixture was transferred onto the porous membrane of a migration microchamber, with 29 μL of chemokine ligand (0.1 nM chemokine MCP-1 protein for CCR2 assay or […] chemokine TECK protein for CCR9 assay) placed at the lower chamber. Following an incubation at 37° C. (90-minute for CCR2; 150-minute for CCR9), during which cells migrated […] the chemokine gradient, the assay was terminated by removing the cell drops from atop the filter. To quantify cells migrated across the membrane, 5 μL of 7× CyQUANT® solution was added to each well in the lower chamber, and the fluorescence signal measured on a Spectrafluor Plus fluorescence plate reader (TECAN, Durham, N.C.). The degree of inhibition was determined by comparing migration signals between compound-treated and untreated cells. IC50 calculation was further performed by non-linear squares regression analysis using Graphpad Prism (Graphpad Software, San Diego, Calif.).
(§3) Calcium flux assay measures an increase in intracellular calcium following ligand-induced receptor activation. In the screen of chemokine antagonists, it was used as a secondary assay carried out on a FLIPR® machine (Molecular Devices, Mountain View, Calif.). To begin an assay, chemokine expressing cells (such as THP-1 cells for CCR2 assay or MOLT-4 cells for CCR9 assay) were harvested by centrifugation of cell suspension, and resuspended to 1.5×10^6 cells/mL in HBSS (with 1% fetal calf serum). Cells were then labeled with a calcium indicator dye Fluo-4 AM for 45 minutes at 37° C. with gentle shaking. Following incubation, cells were pelletted, washed once with HBSS and resuspended in the same buffer at a density of 1.6×10^6 cells/mL. One hundred microliters of labeled cells were mixed with 10 μL of test compound at the appropriate concentrations on an assay plate. Chemokine protein (MCP-1 at a final concentration of 0.1 nM for CCR2 assay or TECK at a final concentration of 25 nM for CCR9 assay) to activate the receptor. The degree of inhibition was determined by comparing calcium signals between compound-treated and untreated cells. IC50 calculations were further performed by non-linear squares regression analysis using Graphpad Prism (Graphpad Software, San Diego, Calif.).
Ligand binding assay was used to determine the ability of potential CCR2 antagonists to block the interaction between CCR2 and its ligand MCP-1. […]

SMILES | IC50 [µM]
O=S(=O)(Nc1cc(Cl)cnc1-c1nncn1-c1cc[nH]n1)c1ccc(Cl)c(Cl)c1 | < 1
Cc1nnc(-c2ncc(Cl)cc2NS(=O)(=O)c2ccc(Cl)c(C(F)(F)F)c2)n1-c1n[nH]cc1Br | < 1
CCN(C)C(=O)c1nnc(-c2ncc(Cl)cc2NS(=O)(=O)c2ccc(Cl)c(C(F)(F)F)c2)n1-c1ccon1 | < 1
O=S(=O)(Nc1cc(Cl)cnc1-c1nnc(C2CC2)n1-c1cc[nH]n1)c1ccc(Cl)c(C(F)(F)F)c1 | < 1
NC(=O)c1nnc(-c2ncc(Cl)cc2NS(=O)(=O)c2ccc(Cl)c(Cl)c2)n1-c1ccon1 | < 1
O=S(=O)(Nc1cc(Cl)cnc1-c1nncn1-c1cn[nH]c1)c1ccc(Cl)c(C(F)(F)F)c1 | < 1
O=S(=O)(Nc1cc(Cl)cnc1-c1nnc(C(F)(F)F)n1-c1ccccc1)c1ccc(Cl)c(C(F)(F)F)c1 | < 1
COCc1nnc(-c2ncc(Cl)cc2NS(=O)(=O)c2ccc(Cl)c(C(F)(F)F)c2)n1-c1cc[nH]n1 | < 1
CC(C)(C)c1nnc(-c2ncc(Cl)cc2NS(=O)(=O)c2ccc(Cl)c(C(F)(F)F)c2)n1-c1cc[nH]n1 | < 1
O=S(=O)(Nc1cc(Cl)cnc1-c1nncn1C1CCNC1)c1ccc(Cl)c(C(F)(F)F)c1 (stereo not shown) | < 1
CC(C)n1c(CO)nnc1-c1ncc(Cl)cc1NS(=O)(=O)c1ccc(Cl)c(C(F)(F)F)c1 | < 1
O=S(=O)(Nc1cc(Br)cnc1-c1nncn1-c1cc[nH]n1)c1ccc(Cl)c(C(F)(F)F)c1 | < 1
COc1ccc(F)cc1-n1cnnc1-c1ncc(Cl)cc1NS(=O)(=O)c1ccc(Cl)c(C(F)(F)F)c1 | < 1
CN(C)C(=O)c1nnc(-c2ncc(Cl)cc2NS(=O)(=O)c2ccc(Cl)c(C(F)(F)F)c2)n1-c1ccon1 | < 1
O=C(c1nnc(-c2ncc(Cl)cc2NS(=O)(=O)c2ccc(Cl)c(C(F)(F)F)c2)n1-c1ccon1)N1CCCC1 | < 1
O=S(=O)(Nc1cc(Cl)cnc1-c1nnc(C(F)(F)F)n1-c1cc[nH]n1)c1ccc(Cl)c(C(F)(F)F)c1 | < 1
CCCn1cnnc1-c1ncc(Cl)cc1NS(=O)(=O)c1ccc(Cl)c(C(F)(F)F)c1 | < 1
Cc1ccccc1-n1cnnc1-c1ncc(Cl)cc1NS(=O)(=O)c1ccc(Cl)c(C(F)(F)F)c1 | < 1
COCc1nnc(-c2ncc(Cl)cc2NS(=O)(=O)c2ccc(Cl)c(C(F)(F)F)c2)n1-c1ccon1 | < 1
CC(C)n1c(CN(C)C)nnc1-c1ncc(Cl)cc1NS(=O)(=O)c1ccc(Cl)c(C(F)(F)F)c1 | < 1
O=S(=O)(Nc1cc(Cl)cnc1-c1nnc(CO)n1-c1ccon1)c1ccc(Cl)c(C(F)(F)F)c1 | < 1
Cc1ccc(S(=O)(=O)Nc2cc(Cl)cnc2-c2nnc(C(N)=O)n2-c2ccon2)cc1C(F)(F)F | < 1
CCNC(=O)c1nnc(-c2ncc(Cl)cc2NS(=O)(=O)c2ccc(Cl)c(C(F)(F)F)c2)n1-c1ccon1 | < 1
Cc1cnc(-c2nncn2-c2cc[nH]n2)c(NS(=O)(=O)c2ccc(Cl)c(C(F)(F)F)c2)c1 | < 1
CC(C)n1c(C(N)=O)nnc1-c1ncc(Cl)cc1NS(=O)(=O)c1ccc(Cl)c(C(F)(F)F)c1 | < 1
O=S(=O)(Nc1cc(Cl)cnc1-c1nncn1-c1n[nH]cc1Br)c1ccc(Cl)c(Cl)c1 | < 1

SMILES | IC50 [µM]
O=S(=O)(Nc1cc(Cl)cnc1-c1nncn1-c1ccon1)c1ccc(Cl)c(Cl)c1 | < 1
CC(C)n1c(C(=O)N(C)C)nnc1-c1ncc(Cl)cc1NS(=O)(=O)c1ccc(Cl)c(C(F)(F)F)c1 | < 1
O=S(=O)(Nc1cc(Br)cnc1-c1nncn1-c1ccon1)c1ccc(Cl)c(C(F)(F)F)c1 | < 1
CC(C)c1nnc(-c2ncc(Cl)cc2NS(=O)(=O)c2ccc(Cl)c(C(F)(F)F)c2)n1-c1cc[nH]n1 | < 1
CC(CN(C)C)n1cnnc1-c1ncc(Cl)cc1NS(=O)(=O)c1ccc(Cl)c(C(F)(F)F)c1 (stereo not shown) | < 1
CC(C)n1c(Cl)nnc1-c1ncc(Cl)cc1NS(=O)(=O)c1ccc(Cl)c(C(F)(F)F)c1 | < 1
O=S(=O)(Nc1cc(Cl)cnc1-c1nncn1C1CCNCC1)c1ccc(Cl)c(C(F)(F)F)c1 | < 1
O=S(=O)(Nc1cc(Cl)cnc1-c1nnc(Br)n1-c1ccon1)c1ccc(Cl)c(C(F)(F)F)c1 | < 1
Cn1nccc1-n1cnnc1-c1ncc(Cl)cc1NS(=O)(=O)c1ccc(Cl)c(C(F)(F)F)c1 | < 1
Cc1n[nH]cc1-n1cnnc1-c1ncc(Cl)cc1NS(=O)(=O)c1ccc(Cl)c(C(F)(F)F)c1 | < 1
CCOC(=O)c1nnc(-c2ncc(Cl)cc2NS(=O)(=O)c2ccc(Cl)c(C(F)(F)F)c2)n1C(C)C | < 1
C[C@@H](CO)n1cnnc1-c1ncc(Cl)cc1NS(=O)(=O)c1ccc(Cl)c(C(F)(F)F)c1 | < 1
CO[C@H]1CNC[C@@H]1n1cnnc1-c1ncc(Cl)cc1NS(=O)(=O)c1ccc(Cl)c(C(F)(F)F)c1 | < 1
Cc1cnc(-c2nnc(C(N)=O)n2-c2ccon2)c(NS(=O)(=O)c2ccc(Cl)c(C(F)(F)F)c2)c1 | < 1
Cc1cnc(-c2nnc(C(N)=O)n2-c2ccccc2)c(NS(=O)(=O)c2ccc(Cl)c(C(F)(F)F)c2)c1 | < 1
CC(C)n1c(N)nnc1-c1ncc(Cl)cc1NS(=O)(=O)c1ccc(Cl)c(C(F)(F)F)c1 | < 1
NC(=O)c1nnc(-c2ncc(Cl)cc2NS(=O)(=O)c2ccc(Cl)c(C(F)(F)F)c2)n1-c1ccon1 | < 1
CC(CCO)n1cnnc1-c1ncc(Cl)cc1NS(=O)(=O)c1ccc(Cl)c(C(F)(F)F)c1 (stereo not shown) | < 1
CC(C)n1c(Br)nnc1-c1ncc(Cl)cc1NS(=O)(=O)c1ccc(Cl)c(C(F)(F)F)c1 | < 1
O=S(=O)(Nc1cc(Cl)cnc1-c1nncn1-c1n[nH]cc1Br)c1ccc(Cl)c(C(F)(F)F)c1 | < 1
O=S(=O)(Nc1cc(Cl)cnc1-c1nnc(Br)n1-c1n[nH]cc1Br)c1ccc(Cl)c(Cl)c1 | < 1
O=C(c1nnc(-c2ncc(Cl)cc2NS(=O)(=O)c2ccc(Cl)c(C(F)(F)F)c2)n1-c1ccon1)N1CCOCC1 | < 1
CC(C)NC(=O)c1nnc(-c2ncc(Cl)cc2NS(=O)(=O)c2ccc(Cl)c(C(F)(F)F)c2)n1-c1ccon1 | < 1
CCOC(=O)c1nnc(-c2ncc(Cl)cc2NS(=O)(=O)c2ccc(Cl)c(C(F)(F)F)c2)n1-c1ccon1 | < 1
Cc1c[nH]nc1-n1cnnc1-c1ncc(Cl)cc1NS(=O)(=O)c1ccc(Cl)c(C(F)(F)F)c1 | < 1

The compounds below were run against T2, CCR9 (Homo sapiens, UniProt P51686) (assay: CCR9 activity in one of the chemotaxis, binding or calcium mobilization assays). Settings: binding or calcium mobilization assays (MOLT-4 cells, TECK).
T2 construct: chemokine expressing cells (such as THP-1 cells for CCR2 assay or MOLT-4 cells for CCR9 assay); host or cells: MOLT-4
T2 sequence (P51686 1-369): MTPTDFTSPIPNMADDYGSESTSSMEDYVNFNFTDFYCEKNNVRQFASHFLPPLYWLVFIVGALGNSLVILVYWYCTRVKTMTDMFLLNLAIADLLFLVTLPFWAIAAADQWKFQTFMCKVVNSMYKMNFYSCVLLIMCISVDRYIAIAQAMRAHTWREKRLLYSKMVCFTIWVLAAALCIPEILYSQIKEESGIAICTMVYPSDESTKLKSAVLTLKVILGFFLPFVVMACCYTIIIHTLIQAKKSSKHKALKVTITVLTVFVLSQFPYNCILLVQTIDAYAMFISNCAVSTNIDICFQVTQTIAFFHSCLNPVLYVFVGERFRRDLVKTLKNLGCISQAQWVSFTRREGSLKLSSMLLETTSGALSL
Type: cell-based
Method: as §1, §2, §3

SMILES | IC50 [µM]
CC(C)(C)c1ccc(S(=O)(=O)Nc2cc(Cl)cnc2-c2nncn2-c2ccccc2)cc1 | < 1
